# Measured values from PubChem BioAssay AID651581 (Sanford-Burnham Center for Chemical Genomics, 2012).
# pIC50: −log10 of the molar value. Activity calls are given as the source filed them. The rule behind the calls is not given here.
# Assays:
# [1] = molecular target: Endothelial PAS domain-containing protein 1 (Homo sapiens) (UniProt Q99814); assay: HIF-2a and HIF-1a reporter inhibition panel, dose response, selectivity assay for HIF-2a inhibitor project, cell-based, luminescence (AID 651581)
# [2] = molecular target: Hypoxia-inducible factor 1-alpha (Homo sapiens) (UniProt Q16665); assay: as above; settings: HIF-1a
# Hypoxia-inducible factor 1-alpha (Homo sapiens), sequence (Q16665 whole entry, looked up): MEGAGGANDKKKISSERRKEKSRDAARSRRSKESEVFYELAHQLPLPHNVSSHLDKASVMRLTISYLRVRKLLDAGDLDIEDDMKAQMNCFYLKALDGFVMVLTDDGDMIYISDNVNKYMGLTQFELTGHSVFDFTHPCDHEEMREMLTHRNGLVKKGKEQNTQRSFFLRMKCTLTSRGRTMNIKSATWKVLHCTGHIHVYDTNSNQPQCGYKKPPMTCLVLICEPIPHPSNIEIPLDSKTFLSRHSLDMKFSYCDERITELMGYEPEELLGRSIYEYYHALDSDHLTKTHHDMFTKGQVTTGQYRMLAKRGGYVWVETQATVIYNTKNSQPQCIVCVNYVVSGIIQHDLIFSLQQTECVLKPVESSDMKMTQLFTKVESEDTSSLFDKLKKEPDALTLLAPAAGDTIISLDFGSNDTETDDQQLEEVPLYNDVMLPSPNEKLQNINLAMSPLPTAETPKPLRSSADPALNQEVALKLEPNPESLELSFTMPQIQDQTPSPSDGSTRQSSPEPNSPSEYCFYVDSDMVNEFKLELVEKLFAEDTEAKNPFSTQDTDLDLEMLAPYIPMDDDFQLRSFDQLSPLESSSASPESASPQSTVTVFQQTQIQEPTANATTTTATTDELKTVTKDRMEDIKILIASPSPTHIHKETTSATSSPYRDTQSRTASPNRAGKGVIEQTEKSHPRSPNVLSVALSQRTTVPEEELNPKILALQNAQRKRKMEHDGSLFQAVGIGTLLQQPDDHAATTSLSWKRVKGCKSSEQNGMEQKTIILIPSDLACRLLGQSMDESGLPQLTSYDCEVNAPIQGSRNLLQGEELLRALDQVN
Compound,"pIC50 ([1]; HIF-2a PANC, mean of runs)","pIC50 ([1]; HIF-2a PANC, run 1)","pIC50 ([1]; HIF-2a PANC, run 2)","pIC50 ([1]; HIF-2a, mean of runs)","pIC50 ([1]; HIF-2a, run 1)","pIC50 ([1]; HIF-2a, run 2)",IC50 ([2]; mean of runs),pIC50 ([2]; run 1),pIC50 ([2]; run 2),"IC50 ([1]; HIF-2a PANC, mean of runs)",pIC50 ([2]; mean of runs),"IC50 ([1]; HIF-2a, mean of runs)"
CCN(CC)CCCC(C)n1c2nc(=O)[nH]c(=O)c-2nc2cc(Cl)ccc21 (configuration not stated),5.45,5.59,5.35,5.04,5.07,5.02,inactive,4.74,4.80,–,–,–
O=C(CSc1nnc(-c2ccc(Br)cc2)o1)Nc1cccc(C(=O)O)c1,–,< 4.00,< 4.00,5.01,4.98,5.04,–,< 4.00,< 4.00,> 99 µM (inactive),–,–
CCOc1ccc2nc(SCc3ccc(CC(=O)O)cc3)c(C#N)cc2c1,5.15,4.96,5.49,5.17,5.24,5.12,–,4.45,4.86,–,4.61,–
COC(=O)Cc1ccc(NC(=O)c2ccc(C(C)(C)C)cc2)cc1,–,> 6.00,> 5.52,6.61,6.61,6.62,–,> 5.00,> 5.00,< 1 µM (inactive),> 5.00,–
COc1ccccc1N1C(=O)C=C(Sc2nc(C)cc(C)n2)C1=O,–,< 4.00,< 4.00,–,4.99,4.93,–,4.17,< 4.00,> 99 µM (inactive),–,inactive
O=S(=O)(Nc1cccc2cccnc12)c1ccccc1,–,< 4.00,< 4.00,5.47,5.45,5.49,–,< 4.00,< 4.00,> 99 µM (inactive),–,–
Cc1ccc(NC(=O)c2cc(N3C(=O)C=CC3=O)ccc2N2CCOCC2)cc1,–,< 4.00,< 4.00,5.01,5.02,5.00,–,4.19,< 4.00,> 99 µM (inactive),–,–
CC(=O)Nc1ccc(OC(=O)N2CCCCC2)cc1,5.55,5.71,5.44,5.63,5.63,5.63,–,4.94,4.95,–,4.94,–
CCOc1ccc(C(=O)Nc2cccc(C(=O)O)c2C)cc1Cl,4.55,4.60,4.50,–,4.87,4.78,–,< 4.52,< 4.00,–,–,inactive
Cc1nc2cc(-c3cccc(F)c3)nn2c(C)c1CCC(=O)NC(C)c1ccc2c(c1)OCCO2 (configuration not stated),–,4.39,4.93,5.36,5.35,5.37,–,4.72,4.74,inactive,4.73,–
CCOC(=O)c1sc(NC(=O)c2cc3c(s2)CCC(C)C3)nc1C (configuration not stated),–,> 6.00,< 4.00,–,6.70,< 4.00,–,4.69,< 4.00,–,–,–
NNC(=O)COc1ccc(-c2nccc(-c3ccc(F)cc3)n2)cc1,5.63,5.62,5.63,5.58,5.59,5.56,inactive,5.47,5.96,–,–,–
COc1cccc(C(=O)C(C#N)=C(SC)SC)c1,–,4.32,4.32,5.24,5.23,5.25,–,4.63,4.88,inactive,4.74,–
CN(C)S(=O)(=O)c1cccc(NC(=O)CSc2cccc3cccnc23)c1,–,< 4.00,< 4.00,5.27,5.28,5.25,–,4.51,4.42,> 99 µM (inactive),4.46,–
S=C(c1ccc(-c2ccccc2)cc1)N1CCOCC1,5.55,5.60,5.51,5.97,6.01,5.94,inactive,5.83,5.60,–,–,–
Cc1c(CCC(=O)N2CCC(C(=O)O)(c3ccccc3)CC2)c(=O)oc2cc3oc4c(c3cc12)CCCC4,5.50,5.42,5.60,5.85,5.80,5.91,–,5.14,5.33,–,5.22,–
CC(=O)Nc1ccc(NC(=O)c2c([N+](=O)[O-])c(C(C)(C)C)nn2C)cc1,4.96,4.95,4.97,–,4.97,4.94,inactive,5.03,4.64,–,–,inactive
Cc1ccc(S(=O)(=O)ON2C(=O)c3ccccc3C2=O)c(C)c1,–,< 4.00,4.41,5.25,5.25,5.25,–,< 4.00,< 4.00,–,–,–

Compound,"pIC50 ([1]; HIF-2a PANC, mean of runs)","pIC50 ([1]; HIF-2a PANC, run 1)","pIC50 ([1]; HIF-2a PANC, run 2)","pIC50 ([1]; HIF-2a, mean of runs)","pIC50 ([1]; HIF-2a, run 1)","pIC50 ([1]; HIF-2a, run 2)",IC50 ([2]; mean of runs),pIC50 ([2]; run 1),pIC50 ([2]; run 2),"IC50 ([1]; HIF-2a PANC, mean of runs)",pIC50 ([2]; mean of runs),"IC50 ([1]; HIF-2a, mean of runs)"
COc1ccc(OC)c(S(=O)(=O)ON2C(=O)c3ccccc3C2=O)c1,–,< 4.00,< 4.00,5.08,5.03,5.14,–,< 4.00,< 4.00,> 99 µM (inactive),–,–
Cn1c(/C=C/c2ccc(Cl)cc2)c([N+](=O)[O-])c(=O)n(C)c1=O,4.46,4.53,4.41,–,4.90,4.92,inactive,4.59,4.61,–,–,inactive
COc1ccc(-c2cnc3c(NC=O)cc(-c4cccc(NS(C)(=O)=O)c4)cn23)cc1OC,5.35,5.40,5.30,–,4.89,4.97,inactive,4.52,4.60,–,–,inactive
O=C(O)c1cc(N/N=C/c2ccc3c(c2)OCCO3)ccc1Cl,–,< 4.00,< 4.00,–,> 4.52,5.30,–,4.34,< 4.00,> 99 µM (inactive),–,–
CC1(C)CC[C@]2(C(=O)O)CC[C@]3(C)C(=CC[C@@H]4[C@@]5(C)CC[C@H](O[C@@H]6O[C@H](C(=O)O)[C@@H](O)[C@H](O[C@@H]7OC[C@H](O)[C@H](O)[C@H]7O)[C@H]6O)C(C)(C)[C@@H]5CC[C@]43C)[C@@H]2C1,–,< 4.00,4.79,–,4.84,4.84,inactive,4.81,4.80,–,–,inactive
O=C(Nc1ccc(F)cc1)c1nc(S(=O)(=O)Cc2ccccc2)ncc1Cl,–,4.58,4.66,5.12,5.11,5.13,inactive,4.83,4.78,inactive,–,–
COc1ccc(C(=O)/C=C/C(=O)N(CC(=O)NCCC(C)C)Cc2cccs2)c(O)c1,–,< 4.00,4.20,5.41,5.38,5.45,–,5.02,4.79,–,4.89,–
C(=NNc1ccc2ccccc2n1)c1ccccn1,–,4.35,4.29,5.25,5.26,5.25,–,4.66,4.60,inactive,4.63,–
C/C(=N\OCc1cccc(C(=O)O)c1)c1ccc(Cl)cc1,–,< 4.00,< 4.00,–,> 5.00,5.23,–,< 4.00,< 4.00,> 99 µM (inactive),–,–
Cc1nn(-c2ccccc2Cl)c(Cl)c1/C=N/Nc1cccc(C(=O)O)c1,–,< 4.00,< 4.00,–,4.63,4.62,–,< 4.00,< 4.00,> 99 µM (inactive),–,inactive
Cc1ccc(NC(=O)c2cc(N3C(=O)C=CC3=O)ccc2N2CCOCC2)cc1Cl,–,4.12,< 4.00,5.27,5.29,5.25,–,4.22,4.41,–,4.30,–
CCOC(=O)Cc1csc(NC(=S)NC(=O)c2ccccc2C)n1,–,< 4.00,4.31,–,4.82,4.84,inactive,4.64,4.43,–,–,inactive
CCOC(=O)C1CCN(Cc2cc(=O)oc3c(C)c(C)ccc23)CC1,4.85,4.70,5.06,5.12,5.10,5.15,–,4.50,4.59,–,4.54,–
CSC(SC)=C(C#N)C(=O)c1ccccc1,–,< 4.00,4.11,5.21,5.18,5.24,–,4.67,4.51,–,4.58,–
Cc1ccc(S(=O)(=O)Nc2cccc3cccnc23)cc1,–,< 4.00,< 4.00,5.95,5.94,5.96,–,< 4.00,< 4.00,> 99 µM (inactive),–,–
Cc1c(CCC(=O)NCCC(=O)O)c(=O)oc2c(C)c3oc4c(c3cc12)CCCC4,5.58,5.63,5.53,5.51,5.55,5.48,inactive,5.91,4.84,–,–,–
CC(C)(C)c1ccc(/C=N/Nc2ccc(C(=O)O)cc2)cc1,> 6.52,> 6.00,> 6.52,–,< 4.00,> 6.72,inactive,4.28,4.39,–,–,–
